# From patent publication US8952021B2, “Compounds for the prevention and treatment of cardiovascular disease” (Resverlogix Corp., priority 2009, dated 2015)
# System: ApoA-I mRNA
# Experiment: Quantification of ApoA-I mRNA in HepG2 cells (real-time PCR)
# Format: cell-based
# Design: key: Active: An active compound was defined as one that caused a ≧20% increase in ApoA-I mRNA at a concentration less than or equal to 100 μM
# Conditions: fold induction relative to DMSO control, concentration less than or equal to 100 μM
# Procedure: In this example, ApoA-I mRNA in tissue culture cells was quantitated to measure the transcriptional up-regulation of ApoA-I when treated with a compound of the invention.
# HepG2 cells (approximately 2×10^5 per well) were placed in a 24-well plate in approximately 400 μL MEM, supplemented with 0.5% (v/v) FBS, 24 h before addition of the compound of interest. At time of harvesting, the spent media was removed from the HepG2 cells and immediately placed on ice (for immediate use) or at −80° C. (for future use) in ApoA-I and albumin ELISAs. The cells remaining in the plate wells were rinsed in 200 μL PBS. PBS was carefully removed to avoid removing any loosely attached cells.
# Once the PBS was removed, 85 μL cell lysis solution was added the cells in each well and incubated for 5-10 minutes at room temperature, to allow for complete cell lysis and detachment. mRNA was then prepared using the “mRNA Catcher PLUS plate” from Invitrogen, according to the protocol supplied. After the last wash, as much wash buffer as possible was aspirated without allowing the wells to dry. Elution Buffer (E3, 80 μL) was then added to each well. mRNA was then eluted by incubating the mRNA Catcher PLUS plate with Elution Buffer for 5 minutes at 68° C. and then immediately placing the plate on ice.
# The eluted mRNA isolated was then used in a one-step real-time […] reaction, using components of the Ultra Sense Kit together with Applied Biosystems primer-probe mixes. Real-time PCR data was analyzed, using the Ct values, to determine the fold induction of each unknown sample, relative to the control (that is, relative to the control for each independent DMSO concentration).
# An active compound was defined as one that caused a ≧20% increase in ApoA-I mRNA at a concentration less than or equal to 100 μM.
row,Structure (SMILES),Effect on ApoA-I mRNA levels
1,"Cc1ccc(-c2nc3ccccc3c(=O)n2-c2ccc(C3CC3)cc2)cn1 [Example 68, 3-(4-cyclopropylphenyl)-2-(6-methylpyridin-3-yl)quinazolin-4(3H)-one]",Active
2,"Cc1cc(-c2nc3ccccc3c(=O)n2-c2ccc(C3CCCCC3)cc2)cc(C)c1OCCO [Example 26, 3-(4-cyclohexylphenyl)-2-(4-(2-hydroxyethoxy)-3,5-dimethylphenyl)quinazolin-4(3H)-one]",Active
3,"CCN(CC)c1ccc(-c2nc3ccccc3c(=O)n2-c2ccc(Cl)cc2)cn1 [Example 43, 3-(4-chlorophenyl)-2-(6-(diethylamino)pyridin-3-yl)quinazolin-4(3H)-one]",Active
4,"CC(=O)Nc1ccc(-n2c(-c3cc(C)c(OCCO)c(C)c3)nc3ccccc3c2=O)cc1 [Example 23, N-(4-(2-(4-(2-hydroxyethoxy)-3,5-dimethylphenyl)-4-oxoquinazolin-3(4H)-yl)phenyl)acetamide]",Active
5,"Cc1ccc(-c2nc3ccccc3c(=O)n2-c2ccc(C(C)C)cc2)cn1 [Example 65, 3-(4-isopropylphenyl)-2-(6-methylpyridin-3-yl)quinazolin-4(3H)-one]",Active
6,"O=c1c2ccccc2nc(-c2cnc3ccccc3c2)n1-c1ccc(Cl)cc1 [Example 36, 3-(4-chlorophenyl)-2-(quinolin-3-yl)quinazolin-4(3H)-one]",Active
7,"Cc1ccc(-c2nc3ccccc3c(=O)n2-c2ccc(Cl)cc2)cn1 [Example 47, 3-(4-chlorophenyl)-2-(6-methylpyridin-3-yl)quinazolin-4(3H)-one]",Active
8,"O=c1c2ccccc2nc(-c2cncc(Br)c2)n1-c1ccc(Cl)cc1 [Example 58, 2-(5-bromopyridin-3-yl)-3-(4-chlorophenyl)quinazolin-4(3H)-one]",Active
9,"O=c1c2ccccc2nc(-c2cnc3c(ccn3S(=O)(=O)c3ccccc3)c2)n1-c1ccc(Cl)cc1 [Example 81, 3-(4-chlorophenyl)-2-(1-(phenylsulfonyl)-1H-pyrrolo[2,3-b]pyridin-5-yl)quinazolin-4(3H)-one]",Active
10,"Cc1cc(-c2nc3ccccc3c(=O)n2-c2ccc(NC=O)cc2)cc(C)c1OCCO [Example 27, N-(4-(2-(4-(2-hydroxyethoxy)-3,5-dimethylphenyl)-4-oxoquinazolin-3(4H)-yl)phenyl)formamide]",Active
11,"CCC(C)c1ccc(-n2c(-c3cc(C)c(OCCO)c(C)c3)nc3ccc(F)cc3c2=O)cc1 (stereo not shown) [Example 9, 3-(4-sec-butylphenyl)-6-fluoro-2-(4-(2-hydroxyethoxy)-3,5-dimethylphenyl)quinazolin-4(3H)-one]",Active
12,"CN(C)c1ccc(-n2c(-c3ccc4[nH]ccc4c3)nc3ccccc3c2=O)cc1 [Example 80, 3-(4-(dimethylamino)phenyl)-2-(1H-indol-5-yl)quinazolin-4(3H)-one]",Active
13,"CCC(C)c1ccc(-n2c(-c3cc(C)c(OCCO)c(C)c3)nc3ccccc3c2=O)cc1 (stereo not shown) [1 and 2, 3-(4-sec-butylphenyl)-2-(4-(2-hydroxyethoxy)-3,5-dimethylphenyl)quinazolin-4(3H)-one]",Active
14,"CCC(C)c1ccc(-n2c(-c3cncc(Br)c3)nc3ccccc3c2=O)cc1 (stereo not shown) [Example 57, 2-(5-bromopyridin-3-yl)-3-(4-sec-butylphenyl)quinazolin-4(3H)-one]",Active
15,"O=c1c2ccccc2nc(-c2ccc(C(F)(F)F)nc2)n1-c1ccc(Cl)cc1 [Example 53, 3-(4-chlorophenyl)-2-(6-(trifluoromethyl)pyridin-3-yl)quinazolin-4(3H)-one]",Active
16,"CCC(C)c1ccc(-n2c(-c3cncc(-c4ccccc4)c3)nc3ccccc3c2=O)cc1 (stereo not shown) [Example 56, 3-(4-sec-butylphenyl)-2-(5-phenylpyridin-3-yl)quinazolin-4(3H)-one]",Active
